{"source": "paper PMC12189931", "about": "“In Vitro Effects of Some Antibiotics on Purified β-Glucosidases from Rat Liver and Kidney Tissues” (Antibiotics, 2025)", "key": {"[1]": {"biological_target": "glucose-6-phosphate dehydrogenase (G6PD) purified from human erythrocytes", "design": "method as in PMID 10712835", "details": "cited from earlier work; for IC50: G6PD purified from human erythrocytes"}, "[2]": {"system": "G6PD purified from sheep erythrocytes", "design": "method as in PMID 12530481", "details": "cited from earlier work"}, "[3]": {"biological_target": "T1, rat liver BGL (Rattus norvegicus, UniProt A0A0G2JVP8)", "T1 construct": "For this purpose, BGLs were purified from rat liver and kidney tissues; from tissue; host or cells: rat liver", "T1 sequence (A0A0G2JVP8 1-469)": "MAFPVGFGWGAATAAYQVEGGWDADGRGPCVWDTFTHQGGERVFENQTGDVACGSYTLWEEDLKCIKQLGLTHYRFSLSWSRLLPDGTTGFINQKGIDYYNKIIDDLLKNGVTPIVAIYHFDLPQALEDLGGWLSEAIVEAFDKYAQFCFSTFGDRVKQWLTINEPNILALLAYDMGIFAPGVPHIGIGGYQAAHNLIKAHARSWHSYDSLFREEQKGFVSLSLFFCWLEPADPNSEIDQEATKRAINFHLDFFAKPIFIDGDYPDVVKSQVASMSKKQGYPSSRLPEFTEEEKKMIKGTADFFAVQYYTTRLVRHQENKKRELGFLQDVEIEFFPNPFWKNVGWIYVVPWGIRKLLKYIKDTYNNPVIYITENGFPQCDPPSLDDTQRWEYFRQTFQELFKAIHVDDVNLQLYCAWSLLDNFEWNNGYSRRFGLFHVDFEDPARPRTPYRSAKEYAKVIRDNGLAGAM", "experiment": "In vitro inhibition of β-glucosidase purified from rat liver (p-NPG substrate)", "assay_type": "biochemical", "details": "for effect on rat liver BGL activity: tested concentration ranges 5–250 mM depending on antibiotic", "procedure": "(§1) Rat liver and kidney BGL activities were determined spectrophotometrically using a ThermoFisher Scientific Multiskan™ FC microplate (Thermo Fisher Scientific, Waltham, MA, USA). p-NPG dissolved in 50 mM of pH 5.5 Na–Ac buffer was used as the substrate. In this method, enzyme activity was determined by photometrically measuring the determination of p-nitrophenol (p-NP) released in the presence of BGLs spectrophotometrically at 405 nm. Calculations were made with the standard curve of p-NP (Cat. No. 241326, Sigma) prepared at 405 nm. One enzyme unit (EU) was defined as the amount of μmol p-nitrophenol released per minute in the reaction medium under the specified experimental conditions.\n(§2) The half-maximal inhibitory concentration (IC50) of antibiotics was determined using a constant concentration of p-NPG of 1.75 mM. At least ten different concentration ranges of each antibiotic were tested to evaluate the in vitro effects of ampicillin (5–250 mM), amoxicillin–clavulanate (5–70 mM), cefuroxime (5–150 mM), cefazolin sodium (10–165 mM), ceftriaxone (10–160 mM), and gentamicin (5–50 mM). Enzyme activity was measured in the presence of different antibiotic concentrations, and BGL activity in the medium without antibiotics, which was accepted as the control group, was determined as 100% reference value. Enzyme activity results were expressed as % activity and the inhibitory concentration (IC50) that reduced enzyme activity by 50% was calculated using GraphPad Prism software. All experiments were performed in three replicates for each antibiotic concentration.\n(§3) Lineweaver–Burk double-reciprocal plots were used to determine the inhibitory effect of antibiotics and the inhibition mechanisms. The curve obtained when there was no inhibitor in the reaction medium was accepted as the control (I0); the intersection points of the control curve with the lines drawn in the presence of the inhibitor at two different concentrations were analyzed. In line with these intersection points, the relevant inhibition types were determined, and the inhibitory constants (Ki) of the inhibitors were calculated."}, "[4]": {"biological_target": "T2, rat kidney BGL (Rattus norvegicus, UniProt A0A0G2JVP8)", "T2 construct": "For this purpose, BGLs were purified from rat liver and kidney tissues; from tissue; host or cells: rat kidney", "T2 sequence (A0A0G2JVP8 1-469)": "T1 sequence (A0A0G2JVP8 1-469)", "experiment": "In vitro inhibition of β-glucosidase purified from rat kidney (p-NPG substrate)", "assay_type": "biochemical", "details": "for Ki / inhibition type / IC50: Kidney BGL; for Ki: Lineweaver–Burk plots; for inhibition type: Lineweaver–Burk, NI: No observed inhibition; for IC50: p-NPG 1.75 mM, GraphPad Prism; for effect on rat kidney BGL activity: tested concentration ranges 5–250 mM depending on antibiotic", "procedure": "as §1, §2, §3"}, "[5]": {"biological_target": "glutathione reductase (GR) purified from mouse kidney tissue", "design": "method as in PMID 32196862", "details": "cited from earlier work"}, "[6]": {"system": "glutathione reductase (GR) purified from mouse liver", "design": "method as in PMID 32196862", "details": "cited from earlier work"}, "[7]": {"system": "glucose-6-phosphate dehydrogenase (G6PD) purified from rat lung tissue", "design": "method as in PMID 26758606", "details": "cited from earlier work"}, "[8]": {"system": "6-phosphogluconate dehydrogenase (6PGD) purified from rat lung tissue", "design": "method as in PMID 26758606", "details": "cited from earlier work"}, "[9]": {"system": "glutathione reductase (GR) purified from rat lung tissue", "design": "method as in PMID 26758606", "details": "cited from earlier work"}, "[10]": {"system": "glutathione reductase (GR) purified from human erythrocytes", "design": "method as in PMID 15895687", "details": "cited from earlier work"}}, "note": "Values joined by “and” are separate entries in the source; they are usually repeats but may differ in a detail not shown here. Equal entries are not always repeated. “Also recorded” adds a separate entry of the source.", "data": [{"compound": "CO/N=C(\\C(=O)N[C@@H]1C(=O)N2C(C(=O)O)=C(COC(N)=O)CS[C@H]12)c1ccco1", "note": "[sodium cefuroxime]", "values": [{"measurement": "IC50", "setting": "[1]", "value": 6.7, "unit": "mM"}]}, {"compound": "gentamicin sulfate", "values": [{"measurement": "IC50", "setting": "[1]", "value": 12, "unit": "mM"}, {"measurement": "inhibition type", "setting": "[2]", "value": "noncompetitively"}]}, {"compound": "CC1(C)S[C@@H]2[C@H](NC(=O)[C@H](N)c3ccccc3)C(=O)N2[C@H]1C(=O)O", "note": "[Ampicillin]", "values": [{"measurement": "loss in liver BGL activity", "setting": "[3]; 40 mM ampicillin in the medium", "value": 10, "unit": "%"}, {"measurement": "Ki", "setting": "[3]; Liver BGL, Lineweaver–Burk plots", "value": "14.3 ± 3.35", "unit": "mM"}, {"measurement": "inhibition type", "setting": "[3]; Liver BGL, Lineweaver–Burk, NI: No observed inhibition", "value": "competitively; also recorded: Competitive"}, {"measurement": "IC50", "setting": "[3]; Liver BGL, p-NPG 1.75 mM, GraphPad Prism", "value": "70 mM and 69.6 mM"}, {"measurement": "Ki", "setting": "[4]", "value": "28.4 ± 6.35", "unit": "mM"}, {"measurement": "inhibition type", "setting": "[4]", "value": "noncompetitively; also recorded: Noncompetitive"}, {"measurement": "IC50", "setting": "[4]", "value": "25 mM and 25.3 mM"}]}, {"compound": "CC1(C)S[C@@H]2[C@H](NC(=O)[C@H](N)c3ccc(O)cc3)C(=O)N2[C@H]1C(=O)O", "note": "[amoxicillin]", "values": [{"measurement": "IC50", "setting": "[5]", "value": 86, "unit": "mM"}, {"measurement": "inhibition / inhibition type", "setting": "[5]", "value": "noncompetitive"}, {"measurement": "inhibition / inhibition type", "setting": "[6]", "value": "competitive"}]}, {"compound": "Cc1nnc(SCC2=C(C(=O)O)N3C(=O)[C@@H](NC(=O)Cn4cnnn4)[C@H]3SC2)s1", "note": "[Cefazolin sodium]", "values": [{"measurement": "effect on rat liver BGL activity", "setting": "[3]", "value": "did not show a significant inhibitory effect"}, {"measurement": "inhibition type", "setting": "[4]", "value": "Noncompetitive"}, {"measurement": "inhibition type", "setting": "[4]; listed as cefazolin sodium", "value": "noncompetitively"}, {"measurement": "IC50", "setting": "[4]", "value": 98.8, "unit": "mM"}, {"measurement": "inhibition / inhibition type", "setting": "[5]", "value": "did not inhibit"}, {"measurement": "inhibition / inhibition type", "setting": "[6]", "value": "did not inhibit"}, {"measurement": "inhibition type", "setting": "[1]; human erythrocyte G6PD", "value": "noncompetitive"}]}, {"compound": "CO/N=C(\\C(=O)N[C@@H]1C(=O)N2C(C(=O)O)=C(COC(N)=O)CS[C@H]12)c1ccco1", "note": "[Cefuroxime]", "values": [{"measurement": "effect on rat liver BGL activity", "setting": "[3]", "value": "did not show a significant inhibitory effect"}, {"measurement": "Ki", "setting": "[4]", "value": "18.7 ± 12.7", "unit": "mM"}, {"measurement": "inhibition type", "setting": "[4]", "value": "Uncompetitive"}, {"measurement": "IC50", "setting": "[4]", "value": 76.9, "unit": "mM"}, {"measurement": "inhibition type", "setting": "[7]", "value": "noncompetitively"}, {"measurement": "inhibition type", "setting": "[8]", "value": "noncompetitively"}, {"measurement": "inhibition type", "setting": "[9]", "value": "noncompetitively"}]}, {"compound": "CNC(C)C1CCC(N)C(OC2C(N)CC(N)C(OC3OCC(C)(O)C(NC)C3O)C2O)O1", "note": "(centres unmarked) [Gentamicin]", "values": [{"measurement": "effect on rat liver BGL activity", "setting": "[3]; listed as gentamicin", "value": "did not show a significant inhibitory effect; also recorded: increased enzyme activity; also recorded: no inhibitory effect"}, {"measurement": "effect on rat kidney BGL activity", "setting": "[4]", "value": "did not reduce kidney BGL activity"}, {"measurement": "effect on rat kidney BGL activity", "setting": "[4]; listed as gentamicin", "value": "did not significantly inhibit; also recorded: did not exhibit inhibitory effects; also recorded: no effect on enzyme activity"}, {"measurement": "inhibition / inhibition type", "setting": "[5]", "value": "did not inhibit"}, {"measurement": "inhibition / inhibition type", "setting": "[6]", "value": "noncompetitive"}, {"measurement": "effect on enzyme activity", "setting": "[10]", "value": "increase the activity"}, {"measurement": "inhibition type", "setting": "[7]", "value": "competitively"}, {"measurement": "inhibition type", "setting": "[8]", "value": "competitively"}, {"measurement": "inhibition type", "setting": "[9]", "value": "competitively"}]}, {"compound": "CO/N=C(\\C(=O)N[C@@H]1C(=O)N2C(C(=O)O)=C(CSc3nc(=O)c(=O)[nH]n3C)CS[C@H]12)c1csc(N)n1", "note": "[Ceftriaxone]", "values": [{"measurement": "effect on rat liver BGL activity", "setting": "[3]", "value": "did not show a significant inhibitory effect"}, {"measurement": "effect on rat kidney BGL activity", "setting": "[4]", "value": "did not reduce kidney BGL activity; also recorded: did not significantly inhibit; also recorded: did not exhibit inhibitory effects"}]}]}
